{"source": "patent US5079341", "conditions": "amide bond, 33-membered ring, BOP/DMAP", "note": "Read-outs that look alike come from different tables or passages of the source."}
{"smiles": "CCCC[C@@H]1NC(=O)[C@@H]2C[C@@H](O)CN2C(=O)[C@H](C(C)C)N(C)C(=O)[C@H](CC(C)C)N(C)C(=O)[C@H](CC(C)C)N(C)C(=O)[C@@H](C)NC(=O)[C@H](C)NC(=O)[C@H](CC(C)C)N(C)C(=O)[C@H](C(C)C)NC(=O)[C@H](CC(C)C)N(C)C(=O)CN(C)C1=O", "values": [{"measurement": "ring closure, isolated yield", "setting": "from H-Hyp-Nle-Sar-MeLeu-Val-MeLeu-Ala-dAla-MeLeu-MeLeu-MeVal-OH, CH2Cl2, 0.4 mM", "result": 26, "unit": "%"}]}
{"smiles": "CCCC[C@@H]1NC(=O)[C@H](CO)N(C)C(=O)[C@H](C(C)C)N(C)C(=O)[C@H](CC(C)C)N(C)C(=O)[C@H](CC(C)C)N(C)C(=O)[C@@H](C)NC(=O)[C@H](C)NC(=O)[C@H](CC(C)C)N(C)C(=O)[C@H](C(C)C)NC(=O)[C@H](CC(C)C)N(C)C(=O)CN(C)C1=O", "values": [{"measurement": "ring closure, isolated yield", "setting": "from H-MeSer-Nle-Sar-MeLeu-Val-MeLeu-Ala-dAla-MeLeu-MeLeu-MeVal-OH, THF/CH2Cl2 1:1, 0.433 mM", "result": 16, "unit": "%"}]}
{"smiles": "CCCC[C@@H]1NC(=O)[C@H]([C@@H](C)O)N(C)C(=O)[C@H](C(C)C)N(C)C(=O)[C@H](CC(C)C)N(C)C(=O)[C@H](CC(C)C)N(C)C(=O)[C@@H](C)NC(=O)[C@H](C)NC(=O)[C@H](CC(C)C)N(C)C(=O)[C@H](C(C)C)NC(=O)[C@H](CC(C)C)N(C)C(=O)CN(C)C1=O", "values": [{"measurement": "ring closure, isolated yield", "setting": "from H-MeThr-Nle-Sar-MeLeu-Val-MeLeu-Ala-dAla-MeLeu-MeLeu-MeVal-OH, CH2Cl2, 0.325 mM", "result": 14, "unit": "%"}]}
{"smiles": "CC[C@@H]1NC(=O)[C@H](CO)N(C)C(=O)[C@H](C(C)C)N(C)C(=O)[C@H](CC(C)C)N(C)C(=O)[C@H](CC(C)C)N(C)C(=O)[C@@H](C)NC(=O)[C@H](C)NC(=O)[C@H](CC(C)C)N(C)C(=O)[C@H](C(C)C)NC(=O)[C@H](CC(C)C)N(C)C(=O)CN(C)C1=O", "values": [{"measurement": "ring closure, isolated yield", "setting": "from H-MeSer-Abu-Sar-MeLeu-Val-MeLeu-Ala-dAla-MeLeu-MeLeu-MeVal-OH, CH2Cl2, 0.176 mM", "result": 15, "unit": "%"}]}
{"smiles": "CC[C@@H]1NC(=O)[C@H](CCNC(=O)OCC2c3ccccc3-c3ccccc32)NC(=O)[C@H](C(C)C)N(C)C(=O)[C@H](CC(C)C)N(C)C(=O)[C@H](CC(C)C)N(C)C(=O)[C@@H](C)NC(=O)[C@H](C)NC(=O)[C@H](CC(C)C)N(C)C(=O)[C@H](C(C)C)NC(=O)[C@H](CC(C)C)N(C)C(=O)CN(C)C1=O", "values": [{"measurement": "ring closure, isolated yield", "setting": "from H-Dab(Fmoc)-Abu-Sar-MeLeu-Val-MeLeu-Ala-dAla-MeLeu-MeLeu-MeVal-OH, CH2Cl2, 0.165 mM", "result": 37, "unit": "%"}]}
{"smiles": "CCC[C@@H]1NC(=O)[C@H](CO)N(C)C(=O)[C@H](C(C)C)N(C)C(=O)[C@H](CC(C)C)N(C)C(=O)[C@H](CC(C)C)N(C)C(=O)[C@@H](C)NC(=O)[C@H](C)NC(=O)[C@H](CC(C)C)N(C)C(=O)[C@H](C(C)C)NC(=O)[C@H](CC(C)C)N(C)C(=O)CN(C)C1=O", "values": [{"measurement": "ring closure, isolated yield", "setting": "from H-MeSer-Nva-Sar-MeLeu-Val-MeLeu-Ala-dAla-MeLeu-MeLeu-MeVal-OH, CH2Cl2/THF 1:1, 3.9 mM", "result": 20, "unit": "%"}]}
{"smiles": "CC[C@@H]1NC(=O)[C@@H]2C[C@@H](O)CN2C(=O)[C@H](C(C)C)N(C)C(=O)[C@H](CC(C)C)N(C)C(=O)[C@H](CC(C)C)N(C)C(=O)[C@@H](C)NC(=O)[C@H](C)NC(=O)[C@H](CC(C)C)N(C)C(=O)[C@H](C(C)C)NC(=O)[C@H](CC(C)C)N(C)C(=O)CN(C)C1=O", "values": [{"measurement": "ring closure, isolated yield", "setting": "from H-Hyp-Abu-Sar-MeLeu-Val-MeLeu-Ala-dAla-MeLeu-MeLeu-MeVal-OH, CH2Cl2, 0.35 mM", "result": 30, "unit": "%"}]}
